Active and inactive are the calls of the source. The rule behind the calls is not given here.
Experiments:
HeLa [1] = assay: Induction of apoptosis in human HeLa cells at 0.5 uM incubated for 18 hrs prior to red light irradiation measured after 6 to 24 hrs by neutral red staining; format: functional, cell-based
HeLa [2] = assay: Induction of apoptosis in human HeLa cells assessed as chromatin condensation at 0.5 uM incubated for 18 hrs prior to red light irradiation measured after 3 hrs by Hoechst-33258 staining; format: functional, cell-based
HeLa [3] = assay: Induction of apoptosis in human HeLa cells assessed as relocalization of proapoptotic Bax protein within mitochondria at 0.5 uM incubated for 18 hrs prior to red light irradiation measured after 3 to 24 hrs by indirect immunofluorescence; format: functional, cell-based
HeLa [4] = assay: Induction of apoptosis in human HeLa cells incubated for 18 hrs prior to red light irradiation measured after 24 hrs by trypan blue exclusion assay; format: functional, cell-based
HeLa [5] = assay: Ratio of drug uptake in human HeLa cells at 0.5 uM after 18 hrs to drug uptake in human HeLa cells at 0.5 uM after 1 hr; format: ADME, cell-based
HeLa [6] = assay: Induction of apoptosis in human HeLa cells assessed as reduction in vinculin expression at 0.5 uM incubated for 18 hrs followed by red light irradiation measured after 24 hrs by immunostaining assay; format: functional, cell-based
HeLa [7] = assay: Induction of ROS generation in human HeLa cells assessed as singlet oxygen luminescence signal at 5 uM after 18 hrs; format: functional, cell-based
HeLa [8] = assay: Drug uptake in human HeLa cells at 0.5 uM by flow cytometry; format: ADME, cell-based; details: TDE = time-dependent effect
HeLa [9] = assay: Darktoxicity against human HeLa cells at 1 uM after 18 hrs by MTT assay; format: cell-based
HeLa [10] = assay: Induction of apoptosis in human HeLa cells assessed as swollen mitochondria at 0.5 uM incubated for 18 hrs prior to red light irradiation measured after 3 hrs by immunofluorescence method; format: functional, cell-based
HeLa [11] = assay: Phototoxicity against human HeLa cells at 0.5 uM incubated for 18 hrs prior to red light irradiation measured after 3 to 24 hrs by trypan blue exclusion assay; format: functional, cell-based
HeLa [12] = assay: Induction of apoptosis in human HeLa cells assessed as microtubule alteration at 0.75 uM incubated for 18 hrs followed by red light irradiation after 3 to 24 hrs by […]; format: functional, cell-based
HeLa [13] = assay: Induction of apoptosis in human HeLa cells assessed as changes in microtubules and actin microfilament alteration at 0.75 to 0.5 uM after 18 hrs by immunostaining assay; format: cell-based
HeLa [14] = assay: Induction of necrosis in human HeLa cells at 0.75 uM incubated for 18 hrs followed by red light irradiation by Hoechst-33258 staining; format: functional, cell-based
HeLa [15] = assay: Induction of ROS generation in human HeLa cells assessed as cell survival at 0.5 uM incubated for 18 hrs followed by NaN3 addition 2 hrs prior to red light irradiation measured after 24 hrs by MTT assay; format: functional; details: light or radiation study, read-out: Activity
HeLa [16] = assay: Induction of apoptosis in human HeLa cells assessed as fragmented chromatin at 0.5 uM incubated for 18 hrs prior to red light irradiation measured after 6 hrs by immunofluorescence method; format: functional, cell-based
HeLa [17] = assay: Induction of necrosis in human HeLa cells at 0.5 uM incubated for 18 hrs prior to red light irradiation measured after 6 to 24 hrs by neutral red staining; format: functional, cell-based
HeLa [18] = assay: Induction of apoptosis in human HeLa cells at 0.75 to 0.5 uM after 18 hrs by neutral red staining; format: cell-based
HeLa [19] = assay: Drug uptake in human HeLa cells at 0.5 uM after 18 hrs by flow cytometry; format: ADME, cell-based
HeLa [20] = assay: Induction of apoptosis in human HeLa cells assessed as cytochrome c relocation at 0.75 to 0.5 uM after 18 hrs by immunofluorescence method; format: cell-based
HeLa [21] = assay: Induction of necrosis in human HeLa cells assessed as giant bubble formation at 0.75 uM incubated for 18 hrs prior to red light irradiation measured after 1 hr by phase contrast microscopy; format: functional, cell-based
HeLa [22] = assay: Induction of apoptosis in human HeLa cells assessed as reduction in vinculin expression at 0.5 uM incubated for 18 hrs followed by red light irradiation measured after 6 hrs by immunostaining assay; format: functional, cell-based
HeLa [23] = assay: Induction of apoptosis in human HeLa cells at 0.5 uM incubated for 18 hrs followed by red light irradiation by Hoechst-33258 staining; format: functional
HeLa [24] = assay: Induction of apoptosis in human HeLa cells assessed as reduction in vinculin expression at 0.75 to 0.5 uM incubated for 18 hrs by immunostaining assay; format: cell-based
HeLa [25] = assay: Induction of apoptosis in human HeLa cells assessed as reduction in F-actin expression at 0.75 to 0.5 uM incubated for 18 hrs by immunostaining assay; format: cell-based
HeLa [26] = assay: Induction of apoptosis in human HeLa cells assessed as microtubule alteration at 0.5 uM incubated for 18 hrs followed by red light irradiation after 6 to 24 hrs by […]; format: functional, cell-based
HeLa [27] = assay: Induction of necrosis in human HeLa cells assessed as chromatin condensation at 0.75 uM incubated for 18 hrs prior to red light irradiation measured after 1 hr by Hoechst-33258 staining; format: functional, cell-based
HeLa [28] = assay: Phototoxicity against human HeLa cells at 1 uM incubated for 18 hrs prior to 1.2 J/cm'2 red light irradiation by MTT assay; format: functional, cell-based
HeLa [29] = assay: Induction of apoptosis in human HeLa cells assessed as reduction in F-actin expression at 0.5 uM incubated for 18 hrs followed by red light irradiation measured after 3 hrs by immunostaining assay; format: functional, cell-based
HeLa [30] = assay: Induction of apoptosis in human HeLa cells assessed as nuclear fragmentation at 0.5 uM incubated for 18 hrs prior to red light irradiation measured after 3 hrs by Hoechst-33258 staining; format: functional, cell-based
HeLa [31] = assay: Induction of necrosis in human HeLa cells at 0.5 to 0.75 uM incubated for 18 hrs by Hoechst-33258 staining; format: cell-based
HeLa [32] = assay: Darktoxicity against human HeLa cells at 0.75 uM after 18 hrs by MTT assay; format: cell-based

COCc1ccc(C2=Cc3nc2ccc2[nH]c(cc2-c2ccc(C[n+]4ccccc4)cc2)c2nc(ccc4[nH]c3cc4-c3ccc(C[n+]4ccccc4)cc3)C(c3ccc(C[n+]4ccccc4)cc3)=C2)cc1.[Br-].[Br-].[Br-] was tested, and the Activity (HeLa [1]) was “Active”, the Activity (HeLa [2]) was “Active” and the Activity (HeLa [3]) was “Active”. For the same compound, the Activity (HeLa [4]) was “Active”, the Ratio (HeLa [5]) was 3 and the Activity (HeLa [6]) was “Active”. The Activity (HeLa [7]) was “Active”, the Drug uptake (HeLa [8]) was “tde” and the Activity (HeLa [9]) was “Toxic”. For the same compound, the Activity (HeLa [10]) was “Active”, the Activity (HeLa [11]) was “Active” and the Activity (HeLa [12]) was “Active”. The Activity (HeLa [13]) was “Non-toxic”, the Activity (HeLa [14]) was “Active” and the viability at 0.5 µM (HeLa [15]) was 72%. For the same compound, the Activity (HeLa [16]) was “Active”, the Activity (HeLa [17]) was “Active” and the Activity (HeLa [18]) was “Non-toxic”. The Drug uptake (HeLa [19]) was “Active”, the Activity (HeLa [20]) was “Non-toxic” and the Activity (HeLa [21]) was “Active”. The Activity (HeLa [22]) was “Active”, the Activity (HeLa [23]) was 70% and the Activity (HeLa [24]) was “Non-toxic”. The Activity (HeLa [25]) was “Non-toxic”, the Activity (HeLa [26]) was “Active” and the Activity (HeLa [27]) was “Active”. For the same compound, the Activity (HeLa [28]) was “Active”, the Activity (HeLa [29]) was “Active” and the Activity (HeLa [30]) was “Active”. For the same compound, the Activity (HeLa [31]) was “Non-toxic” and the Activity (HeLa [32]) was “Toxic”.

Reference: ChEMBL document CHEMBL2375353, “Efficient induction of apoptosis in HeLa cells by a novel cationic porphycene photosensitizer” (Eur J Med Chem, 2013)
